Source: patent publication EP4810052A2, “HCRHR2 SELECTIVE POLYPEPTIDES” (Gubra A/S, priority 2023, dated 2026)
Starred links: 1 amine or outer side, 2 acyl side, 3 side chain; linkers in the order of their positions; H or OH if unused. Non-standard residues stand in square brackets, D forms with d. Residues, ends and D or L forms follow the SMILES beside them. Groups on a side chain read outwards from the residue. *: point of attachment. C20 diacid = O=C(O)CCCCCCCCCCCCCCCCCCC(=O)*; γGlu = O=C(O)[C@H](CCC(=O)[*:2])N[*:1]; Nle = CCCC[C@H](N)C(=O)O; AEEA = NCCOCCOCC(=O)O; Aib = CC(C)(N)C(=O)O

How the values were obtained:
[1] = Dynamic Light Scattering (DLS) of peptide oligomerisation/particle formation; format: physicochemical; details: average of three replica
Outline: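 Peptides were dissolved at 2000 µM in 50 mM phosphate, adjusted to pH 7.5 and 0.2 µm-filtered. Samples were incubated at 40 °C with 700 rpm shaking and measured by DLS in triplicate at time zero and after five days. Hydrodynamic radius and polydispersity came from cumulant analysis assuming one species.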

[2] = Body mass and body fat content in mouse model of diet-induced obesity (DIO); format: in vivo; details: DIO mice; for Blood HbA1c / M. Gastrocnemius / M. Soleus / Body weight at termination / Fat mass change from baseline / Lean mass change from baseline / Relative body weight change at termination: Table 17 study; for Body weight at termination / Fat mass change from baseline / Lean mass change from baseline / Relative body weight change at termination: ± SEM
Method: SEQ ID NO: 3, SEQ ID NO: 6, SEQ ID NO: 238, SEQ ID NO: 16 and SEQ ID NO: 215 were assessed for their ability to reduce body mass and body fat content in a mouse model of diet-induced obesity (DIO).
Male C57BL/6JRj mice were obtained from JanVier (JanVier Labs, France) at 5 weeks of age. The animals were group-housed during obesity induction and then single housed 2 weeks prior to study start. They were housed under a 12/12 h dark-light cycle, light off at 3 PM. Room temperature was controlled to 22°C ± 1°C, with 60 % ± 20% humidity. For 22-23 weeks prior to treatment start and throughout the study, the animals had ad libitum access to high-fat diet (60% kcal fat, D12492, Research Diets) and tap water.
The animals were randomized according to lean mass (EchoMRI) and body weight. Animals were dosed subcutaneously […] for 30-32 days. In study 1, the animals were dosed with vehicle or SEQ ID NO: 3 (10, 30, 60 or 100 nmol/kg). In study 2, the animals were dosed with vehicle or SEQ ID NO: 6 (10 or 30 nmol/kg), SEQ ID NO: 238 (10 or 30 nmol/kg), SEQ ID NO: 16 (10 or 30 nmol/kg), SEQ ID NO: 215 (10 or 30 nmol/kg) or SEQ ID NO: 3 (30 nmol/kg).
Body weight and food intake were recorded daily until day 28 and body composition evaluated on day 26 using EchoMRI. At termination, blood for HbA1c analyses were collected and M. gastrocnemius and M. soleus were weighed.
Statistical significance was evaluated using One-way analysis of variance with Dunnett's multiple comparison test. P < 0.05 was considered statistically significant.

[3] = biological target: T1, mCRHR2 (Mus musculus, UniProt Q60748); experiment: cAMP potency, transiently transfected CHO-K1 cells, mCRHR2; format: cell-based; details: transiently transfected CHO-K1, average n=3; read-out: Transient cell system EC50 (nM) mCRH R2
T1 construct: DYK (FLAG); host or cells: CHO-K1, transiently transfected
T1 sequence (Q60748 1-431 isoform Q60748-2): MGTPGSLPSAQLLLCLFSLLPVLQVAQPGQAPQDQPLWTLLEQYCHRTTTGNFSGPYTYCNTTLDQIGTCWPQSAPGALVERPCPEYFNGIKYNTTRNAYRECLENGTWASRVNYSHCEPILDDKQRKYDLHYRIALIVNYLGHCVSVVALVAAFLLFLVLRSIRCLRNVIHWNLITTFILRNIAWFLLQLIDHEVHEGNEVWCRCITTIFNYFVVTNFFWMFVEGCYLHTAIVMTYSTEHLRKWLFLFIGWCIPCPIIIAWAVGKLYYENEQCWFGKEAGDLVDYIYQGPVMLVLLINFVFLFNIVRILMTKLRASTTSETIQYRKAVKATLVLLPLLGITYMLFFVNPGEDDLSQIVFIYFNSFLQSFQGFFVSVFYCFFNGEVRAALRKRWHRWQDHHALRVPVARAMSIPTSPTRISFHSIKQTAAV
Method: Selected peptides were tested for potency on different species (mouse, rat, porcine) using transiently transfected CHO-K1 cells using the general procedure.

[4] = Size exclusion chromatography for high molecular weight products (HMWP); format: physicochemical; details: for HMWP formation (SEC analysis) T14-T0 (%): 14 days; for HMWP formation (SEC analysis) T28-T0 (%): 28 days
Method: Dissolved samples were incubated for at least 2 h at room temperature on a rocking table. The main peak purity at time zero (T0) was determined using reversed phase chromatography. The samples were incubated at 40°C for 14 days (T14) and 28 days (T28). The samples were analyzed with reversed phase chromatography and size exclusion chromatography.
Size exclusion chromatography (SEC) was used as an analysis for the formation of high molecular weight products (HMWP, covalent dimers, trimers etc.,). SEC analyses was performed on Thermo Dionex Ultimate UHPLC system with UV detection at 215 nm) equipped with a SEC column (Waters BEH 125Å, 1.7 µm, 300mm x 4.6). Analysis was performed by isocratic elution using 60% buffer B (0.1% TFA in 5:95 H2O: acetonitrile) in buffer A (0.1% TFA in 95:5 H2O: acetonitrile) at a column temperature of 60° C over 20 min. Flowrate was 0.3 mL/min.
Chromatograms were integrated as HMWP (all peaks eluting before the main peak), main peak (assuming this is monomeric peptide) and if relevant LMWP (low molecular weight products, all peaks eluting after main peak). The amount of HMWP was reported as area relative to total area in percent.

[5] = T0, time zero after sample preparation
[6] = T5, five days incubation at 40°C with continuous shaking

SMILES: CCCC[C@H](NC(=O)[C@@H](NC(=O)[C@H](CCC(=O)O)NC(=O)[C@H](C)NC(=O)[C@H](CC(N)=O)NC(=O)C(C)(C)NC(=O)[C@H](CCCCNC(=O)COCCOCCNC(=O)COCCOCCNC(=O)CC[C@H](NC(=O)CC[C@H](NC(=O)CCCCCCCCCCCCCCCCCCC(=O)O)C(=O)O)C(=O)O)NC(=O)[C@H](C)NC(=O)[C@H](CCC(N)=O)NC(=O)[C@H](CCC(=O)O)NC(=O)[C@H](CCCNC(=N)N)NC(=O)[C@H](C)NC(=O)[C@H](C)NC(=O)[C@H](CCCNC(=N)N)NC(=O)[C@H](C)NC(=O)[C@H](CCCNC(=N)N)NC(=O)[C@H](C)NC(=O)[C@H](CCC(N)=O)NC(=O)[C@H](CO)NC(=O)[C@H](CC(C)C)NC(=O)[C@H](CC(C)C)NC(=O)[C@@H](NC(=O)[C@H](CCC(N)=O)NC(=O)[C@H](CC(C)C)NC(=O)[C@H](CC(C)C)NC(=O)CNC(=O)[C@@H](NC(=O)[C@@H]1CCCN1C(=O)[C@@H](NC(=O)[C@H](CC(=O)O)NC(=O)[C@H](CC(C)C)NC(=O)[C@H](CO)NC(=O)[C@H](CC(C)C)NC(=O)[C@@H](NC(=O)[C@@H]1CCCN1)C(C)C)C(C)C)[C@@H](C)CC)[C@@H](C)CC)[C@@H](C)CC)C(=O)N[C@@H](C)C(=O)N[C@@H](CCC(=O)O)C(=O)N[C@H](C(N)=O)C(C)C [SEQ ID NO: 238] (H-PVLSLDVPIGLLQILLSQARARAAREQAK([AEEA-AEEA-γGlu-γGlu-C20 diacid])[Aib]NAEI[Nle]AEV-NH2)
- PD (%) [1, 5]: 5.3%
- Rh (nm) [1, 5]: 4.8 nm
- PD (%) [1, 6]: 8.1%
- Rh (nm) [1, 6]: 4.8 nm
- relative body weight ([2]; 28 days, compared to vehicle): prolonged dose-dependent reduction
- Blood HbA1c ([2]; 10 nmol/kg): 4.3 ± 0.04 %
- M. Gastrocnemius ([2]; 10 nmol/kg): 0.18 ± 0.001 g
- M. Soleus ([2]; 10 nmol/kg): 0.012 ± 0.0003 g
- Body weight at termination ([2]; 10 nmol/kg): 39.1 ± 0.7 g
- Fat mass change from baseline ([2]; 10 nmol/kg): -9.5 ± 0.6 g
- Lean mass change from baseline ([2]; 10 nmol/kg): -0.4 ± 0.2 g
- Relative body weight change at termination ([2]; 10 nmol/kg): 82.3 ± 1.2 %
- Blood HbA1c ([2]; 30 nmol/kg): 4.4 ± 0.1 %
- M. Gastrocnemius ([2]; 30 nmol/kg): 0.18 ± 0.004 g
- M. Soleus ([2]; 30 nmol/kg): 0.011 ± 0.0007 g
- Body weight at termination ([2]; 30 nmol/kg): 37.4 ± 0.9 g
- Fat mass change from baseline ([2]; 30 nmol/kg): -10.7 ± 0.3 g
- Lean mass change from baseline ([2]; 30 nmol/kg): -0.7 ± 0.3 g
- Relative body weight change at termination ([2]; 30 nmol/kg): 77.9 ± 0.7 %
- EC50 [3]: 0.0047 nM
- HMWP formation (SEC analysis) T14-T0 (%) ([4]; pH 7.0, 40°C): 0.3%
- HMWP formation (SEC analysis) T28-T0 (%) ([4]; pH 7.0, 40°C): 0.5%
- HMWP formation (SEC analysis) T14-T0 (%) ([4]; pH 7.5, 40°C): 0.4%
- HMWP formation (SEC analysis) T28-T0 (%) ([4]; pH 7.5, 40°C): 0.4%
- HMWP formation (SEC analysis) T14-T0 (%) ([4]; pH 8.0, 40°C): -0.1%
- HMWP formation (SEC analysis) T28-T0 (%) ([4]; pH 8.0, 40°C): 0.2%
